Patent EP4509511A1, “SUBSTITUTED SPIRO-ISOXAZOLINYL LACTAMS, SALTS THEREOF AND THEIR USE AS HERBICIDALLY ACTIVE SUBSTANCES” (Bayer Aktiengesellschaft, priority 2023, dated 2025)

How the values were obtained:
LOLRI = test: Herbicidal pre-emergence action - Part II; assay type: in vivo, Lolium rigidum; settings: 320 g/ha; Table C7
Excerpt: (§1) Seeds of mono- and dicotyledonous weed plants and crop plants were sown, in plastic or organic planting pots, in sandy loam and covered with soil. The compounds according to the invention, formulated in the form of wettable powders (WP) or as emulsifiable concentrates (EC), were applied to the surface of the covering soil as aqueous suspension or emulsion, with the addition of 0.5% of an additive, at an application rate of 600 1 of water/ha (converted). Following treatment, the pots were placed in a greenhouse and kept under optimum growth conditions for the test plants. The visual grading of the damage to the test plants was carried out after ca. 3 weeks in comparison to untreated controls (herbicidal effect in percent (%): 100% effect = plants have died off, 0% effect = as control plants). Tables C1 to C12 below show the effects of selected compounds of the general formula (I) according to table 1 on various harmful plants and an application rate corresponding to 320 g/ha or below obtained by the experimental procedure mentioned above. Table C1: pre-emergence activity at 320g/ha against ABUTH in %

KCHSC = test: Herbicidal post-emergence action - Part I; assay type: in vivo, Kochia scoparia; settings: one-leaf stage, rated visually after about 3 weeks vs untreated controls
Summary of the method: (§2)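 Greenhouse weeds grown in sandy loam were sprayed post-emergence at the one-leaf stage, 2-3 weeks after sowing. Compounds were applied as WP or EC in water with 0.5% additive at 600 L/ha, at 1280 g/ha or below. Visual damage was rated after about 3 weeks versus untreated plants (0-100%).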

MATIN = test: Herbicidal post-emergence action - Part I; assay type: in vivo, Matricaria inodora; settings: one-leaf stage, rated visually after about 3 weeks vs untreated controls
Summary of the method: as §2

ECHCG = test: Herbicidal pre-emergence action - Part II; assay type: in vivo, Echinochloa crus-galli
Excerpt: as §1

TRZAS = test: Post-emergence effects on crop plants; assay type: in vivo, Triticum aestivum; settings: crop plant
Summary of the method: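 Crop plants were grown in sandy loam in the greenhouse and sprayed at the single-leaf stage, 2–3 weeks after sowing, with WP or EC formulations plus 0.5% additive in 600 l water/ha, at rates of 320 g/ha or below. Injury was scored visually about 3 weeks later as % effect versus untreated controls (100% = plants dead).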

ZEAMX = test: Pre-emergence effects on crop plants; assay type: in vivo, Zea mays; settings: crop plant
Excerpt: (§3) Seeds of mono- and dicotyledonous weed plants and crop plants were sown, in plastic or organic planting pots, in sandy loam and covered with soil. The compounds according to the invention, formulated in the form of wettable powders (WP) or as emulsifiable concentrates (EC), were applied to the surface of the covering soil as aqueous suspension or emulsion, with the addition of 0.5% of an additive, at an application rate of 600 1 of water/ha (converted). Following treatment, the pots were placed in a greenhouse and kept under optimum growth conditions for the test plants. The visual grading of the damage to the test plants was carried out after ca. 3 weeks in comparison to untreated controls (herbicidal effect in percent (%): 100% effect = plants have died off, 0% effect = as control plants). Tables D1 to D5 below show the effects of various compounds of the general formula (I) according to Table 1 on various crop plants and an application rate corresponding to 320 g/ha or below obtained by the experimental procedure mentioned above in Biological Examples, Section C. Table […]: pre-emergence activity at 320g/ha against ZEAMX in %

GLXMA = test: Post-emergence effects on crop plants; assay type: in vivo, Glycine max; settings: crop plant
Excerpt: (§4) Seeds of mono- and dicotyledonous weed plants and crop plants were sown, in plastic or organic planting pots, in sandy loam, covered with soil and grown in a greenhouse under controlled growth conditions. 2 to 3 weeks after sowing, the test plants were sprayed in the single-leaf stage. The compounds according to the invention, formulated in form of wettable powders (WP) or as emulsifiable concentrates (EC), were sprayed onto the green plant parts as aqueous suspension or emulsion, with the addition of 0.5% of an additive, at an application rate of 600 1 of water/ha (converted). The test plants were placed in the greenhouse for ca. 3 weeks under optimum growth conditions, and then the effect of the preparations was assessed visually in comparison with untreated controls (herbicidal effect in percent (%): 100% effect = plants have died off, 0% effect = as control plants). Tables F1 to F5 below show the effects of selected compounds of the general formula (I) according to table 1 on various crop plants and an application rate corresponding to 320 g/ha or below obtained by the experimental procedure mentioned above. Table […]: post-emergence activity at 5g/ha against ZEAMX in %

ORYZA [1] = test: Pre-emergence effects on crop plants; assay type: in vivo, Oryza sativa; settings: crop plant
Excerpt: as §3

STEME = test: Herbicidal post-emergence action - Part I; assay type: in vivo, Stellaria media; settings: 1280 g/ha, one-leaf stage, rated visually after about 3 weeks vs untreated controls
Summary of the method: as §2

ORYZA [2] = test: Post-emergence effects on crop plants; assay type: in vivo, Oryza sativa; settings: crop plant
Excerpt: as §4

ALOMY = test: Herbicidal pre-emergence action - Part II; assay type: in vivo, Alopecurus myosuroides; settings: visual grading after ca. 3 weeks vs untreated controls
Excerpt: as §1

DIGSA = test: Herbicidal pre-emergence action - Part II; assay type: in vivo, Digitaria sanguinalis
Excerpt: as §1

AMARE = test: Herbicidal pre-emergence action - Part II; assay type: in vivo, Amaranthus retroflexus; settings: visual grading after ca. 3 weeks vs untreated controls
Excerpt: as §1

SETVI = test: Herbicidal pre-emergence action - Part II; assay type: in vivo, Setaria viridis
Excerpt: as §1

| SMILES | pre-emergence activity against LOLRI (LOLRI) [%] | post-emergence activity at 320g/ha against KCHSC in % (KCHSC) [%] | post-emergence activity at 1280g/ha against KCHSC in % (KCHSC) [%] | post-emergence activity at 320g/ha against MATIN in % (MATIN) [%] | post-emergence activity at 1280g/ha against MATIN in % (MATIN) [%] | pre-emergence activity against ECHCG (ECHCG; 320 g/ha, Table C6a) [%] | post-emergence activity against TRZAS (TRZAS; 80 g/ha, Table F2c) [%] | post-emergence activity against TRZAS (TRZAS; 320 g/ha, Table F2d) [%] | pre-emergence activity against ZEAMX (ZEAMX; 80 g/ha, Table D1b) [%] | pre-emergence activity against ZEAMX (ZEAMX; 320 g/ha, Table D1a) [%] | post-emergence activity against GLXMA (GLXMA; 80 g/ha, Table F4c) [%] | pre-emergence activity against ORYZA (ORYZA [1]; 80 g/ha, Table D3b) [%] | post-emergence activity at 1280g/ha against STEME in % (STEME) [%] | post-emergence activity against ORYZA (ORYZA [2]; 320 g/ha, Table F3a) [%] | pre-emergence activity at 320g/ha against ALOMY in % (ALOMY) [%] | pre-emergence activity against DIGSA (DIGSA; 320 g/ha, Table C5a) [%] | pre-emergence activity at 320g/ha against AMARE in % (AMARE) [%] | pre-emergence activity against SETVI (SETVI; 320 g/ha, Table C10a) [%] | further results |
| --- | --- | --- | --- | --- | --- | --- | --- | --- | --- | --- | --- | --- | --- | --- | --- | --- | --- | --- | --- |
| Cc1ccsc1C1=NOC2(CCCN(Cc3c(F)cccc3F)C2=O)C1 (racemic) [Compound I-2] | 90 | 90 | 90 | 90 | 90 | 100 | 0 | 0 | 0 | 0 | 0 | 0 | 90 | 20 | 90 | 100 | 90 | 100 | pre-emergence activity against ECHCG (ECHCG; 80 g/ha, Table C6b): 90%; pre-emergence activity against DIGSA (DIGSA; 80 g/ha, Table C5b): 90%; pre-emergence activity against SETVI (SETVI; 80 g/ha, Table C10b): 100% |
| O=C1N(Cc2ccccc2F)CCC12CC(c1c(F)cccc1F)=NO2 (racemic) [Compound I-10] | 80 | 90 | 90 | 90 | 90 | 90 | 0 | 10 | 0 | 0 | 0 | 0 | 90 | 0 | 80 | 90 | 80 | 90 |  |
| Cc1ccsc1C1=NOC2(CCN(Cc3c(F)cccc3F)C2=O)C1 (racemic) [Compound I-16, 7-(2,6-Difluorobenzyl)-3-(3-methyl-2-thienyl)-1-oxa-2,7-diazaspiro[4.4]non-2-en-6-one] | 100 |  | 90 |  | 90 | 90 | 0 | 0 | 10 | 20 | 0 | 0 | 90 | 0 | 80 | 80 | 80 | 90 | post-emergence activity against GLXMA (GLXMA; Table F4d, title: 320 g/ha, application rate: 80 g/ha): 0%; pre-emergence activity against ORYZA (ORYZA [1]; Table D3a, title: 320g/ha, application rate: 80 g/ha): 20%; post-emergence activity against ORYZA (ORYZA [2]; Table F3b, title: 80g/ha, application rate column: 320 g/ha): 0% |
